According to patent US9474790B2, “Stable, protracted GLP-1/glucagon receptor co-agonists for medical use” (Novo Nordisk A/S, priority 2013, dated 2016):
Numbered stars: 1 amine (or outer) side, 2 acyl side, 3 side chain; on linkers, the order of the positions; unused ones are H or OH. Bridge positions count the residues as written; N and C are the ends. Square brackets hold non-standard residues; d marks the D form. Side chains are listed from the residue outwards. Peptide text beside a SMILES is read from it. I, II: the chains in the order shown. * marks the point of attachment. C18 diacid = O=C(O)CCCCCCCCCCCCCCCCC(=O)*; γGlu = O=C(O)[C@H](CCC(=O)[*:2])N[*:1]; Ac4c = NC1(C(=O)O)CCC1; AEEA = NCCOCCOCC(=O)O; Aib = CC(C)(N)C(=O)O

Experiment: Chemical stability assessment by RP-UPLC
Format: physicochemical
Conditions: 333 μM, 8 mM phosphate buffer pH 7.3, 37° C. vs 5° C.
Experimental: The purpose of this assay was to assess the chemical stability of the glucagon derivatives of the invention in aqueous solutions.
Chemical stability of glucagon derivatives or analogues was investigated by RP-UPLC separation and UV detection. Lyophilized samples were dissolved in a 8 mM Phosphate buffer pH 8.6, followed by adjustment to pH 7.3.using HCl to a final concentration of 333 μM. Samples were incubated for 14 days at 5° C. and 37° C. followed by RP-UPLC analysis. Purity was defined as the area percentage of the main peak in relation to the total area of all integrated peaks in each chromatogram. Purity loss after 14 days at 37° C. was determined as the difference in purity between the samples incubated at 5° C. and 37° C., divided by the purity of the sample after incubation for 14 days at 5° C.
RP-UPLC analysis was performed using a Waters BEH130 2.1 mm×150 mm, 1.7 μm column operated at 50° C. and a flow rate of 0.4 mL/min using a mobile phase system consisting of A: 0.05% TFA in MQ-water B: 0.05% TFA in Acetonitrile. UV-detection was performed at 215 nm. The typical gradient profile used for most of the samples is shown below.
For some individual derivatives or analogues eluting at substantially different retention times compared with the majority of derivatives or analogues, some adjustments to the gradient profile were made to better enable purity assessment comparison across samples. The data confirmed the improved chemical stability of the glucagon derivatives of this invention.

Purity loss; 14 days at 37° C. [%] | Compound
2 | CC(C)C[C@H](NC(=O)[C@H](CC(=O)O)NC(=O)[C@H](CC(C)C)NC(=O)[C@H](Cc1ccc(O)cc1)NC(=O)[C@H](CCCCN)NC(=O)[C@H](CO)NC(=O)[C@H](CC(C)C)NC(=O)[C@H](CC(=O)O)NC(=O)[C@H](CO)NC(=O)[C@@H](NC(=O)[C@H](Cc1ccccc1)NC(=O)[C@@H](NC(=O)CNC(=O)[C@H](CCC(N)=O)NC(=O)C1(NC(=O)[C@@H](N)Cc2c[nH]cn2)CCC1)[C@@H](C)O)[C@@H](C)O)C(=O)N[C@@H](CCCCN)C(=O)N[C@@H](CCCNC(=N)N)C(=O)N[C@@H](C)C(=O)N[C@@H](CCCNC(=N)N)C(=O)N[C@@H](CCC(=O)O)C(=O)N[C@@H](Cc1ccccc1)C(=O)N[C@H](C(=O)N[C@@H](CCC(N)=O)C(=O)N[C@@H](Cc1c[nH]c2ccccc12)C(=O)N[C@@H](CC(C)C)C(=O)N[C@@H](CC(C)C)C(=O)N[C@@H](CCCCNC(=O)CNC(=O)[C@H](CO)NC(=O)[C@H](CCC(=O)O)NC(=O)CNC(=O)[C@H](CO)NC(=O)CC[C@H](NC(=O)CC[C@H](NC(=O)CCCCCCCCCCCCCCCCC(=O)O)C(=O)O)C(=O)O)C(=O)N[C@H](C(N)=O)[C@@H](C)O)C(C)C [Example 48] (I: H-H[Ac4c]QGTFTSDLSKYLDLKRAREFVQWLLKT-NH2 / II: {C18 diacid-γGlu-γGlu}-SGESG; amide I:28-II:C; N-terminus assumed)
4 | CC(C)C[C@H](NC(=O)[C@H](Cc1ccc(O)cc1)NC(=O)[C@H](CCCCN)NC(=O)[C@H](CO)NC(=O)[C@H](CC(C)C)NC(=O)[C@H](CC(=O)O)NC(=O)[C@H](CO)NC(=O)[C@@H](NC(=O)[C@H](Cc1ccccc1)NC(=O)[C@@H](NC(=O)CNC(=O)[C@H](CCC(N)=O)NC(=O)C(C)(C)NC(=O)[C@@H](N)Cc1c[nH]cn1)[C@@H](C)O)[C@@H](C)O)C(=O)N[C@@H](CC(=O)O)C(=O)N[C@@H](CO)C(=O)N[C@@H](CCCNC(=N)N)C(=O)N[C@@H](CCCNC(=N)N)C(=O)N[C@@H](C)C(=O)N[C@@H](CCCNC(=N)N)C(=O)N[C@@H](CCC(=O)O)C(=O)N[C@@H](Cc1ccccc1)C(=O)N[C@H](C(=O)N[C@@H](CCC(N)=O)C(=O)N[C@@H](Cc1c[nH]c2ccccc12)C(=O)N[C@@H](CC(C)C)C(=O)N[C@@H](CC(C)C)C(=O)N[C@@H](CCCCNC(=O)CC[C@H](NC(=O)CC[C@H](NC(=O)COCCOCCNC(=O)COCCOCCNC(=O)CC[C@H](NC(=O)CCCCCCCCCCCCCCCCC(=O)O)C(=O)O)C(=O)O)C(=O)O)C(=O)N[C@H](C(N)=O)[C@@H](C)O)C(C)C [Example 56, N^ε28-[(4S)-4-carboxy-4-[[(4S)-4-carboxy-4-[[2-[2-[2-[[2-[2-[2-[[(4S)-4-carboxy-4-(17-carboxyheptadecanoylamino)butanoyl]amino]ethoxy]ethoxy]acetyl]amino]ethoxy]ethoxy]acetyl]amino]butanoyl]amino]butanoyl]-[Aib2,Leu10,Arg20,Glu21,Leu27,Lys28]-Glucagon amide] (H-H[Aib]QGTFTSDLSKYLDSRRAREFVQWLLK([γGlu-γGlu-AEEA-AEEA-γGlu-C18 diacid])T-NH2)
2 | CC(C)C[C@H](NC(=O)[C@H](Cc1ccc(O)cc1)NC(=O)[C@H](CCCCN)NC(=O)[C@H](CO)NC(=O)[C@H](CC(C)C)NC(=O)[C@H](CC(=O)O)NC(=O)[C@H](CO)NC(=O)[C@@H](NC(=O)[C@H](Cc1ccccc1)NC(=O)[C@@H](NC(=O)CNC(=O)[C@H](CCC(N)=O)NC(=O)C(C)(C)NC(=O)[C@@H](N)Cc1c[nH]cn1)[C@@H](C)O)[C@@H](C)O)C(=O)N[C@@H](CCC(=O)O)C(=O)N[C@@H](CO)C(=O)N[C@@H](CCCCN)C(=O)N[C@@H](CCCNC(=N)N)C(=O)N[C@@H](C)C(=O)N[C@@H](CCCNC(=N)N)C(=O)N[C@@H](CO)C(=O)N[C@@H](Cc1ccccc1)C(=O)N[C@H](C(=O)N[C@@H](CCC(N)=O)C(=O)N[C@@H](Cc1c[nH]c2ccccc12)C(=O)N[C@@H](CC(C)C)C(=O)N[C@@H](CC(C)C)C(=O)N[C@@H](CCCCNC(=O)CC[C@H](NC(=O)CC[C@H](NC(=O)[C@H](CO)NC(=O)[C@H](CCC(=O)O)NC(=O)[C@H](CO)NC(=O)CC[C@H](NC(=O)CC[C@H](NC(=O)CCCCCCCCCCCCCCCCC(=O)O)C(=O)O)C(=O)O)C(=O)O)C(=O)O)C(=O)N[C@H](C(N)=O)[C@@H](C)O)C(C)C [Example 69, N^ε28-[(4S)-4-carboxy-4-[[(4S)-4-carboxy-4-[[(2S)-2-[[(2S)-4-carboxy-2-[[(2S)-2-[[(4S)-4-carboxy-4-[[(4S)-4-carboxy-4-(17-carboxyheptadecanoylamino)butanoyl]amino]butanoyl]amino]-3-hydroxypropanoyl]amino]butanoyl]amino]-3-hydroxypropanoyl]amino]butanoyl]amino]butanoyl]-[Aib2,Leu10,Glu15,Lys17,Arg20,Ser21,Leu27,Lys28]-Glucagon amide] (H-H[Aib]QGTFTSDLSKYLESKRARSFVQWLLK([γGlu-γGlu-Ser-Glu-Ser-γGlu-γGlu-C18 diacid])T-NH2; N-terminus assumed)

More lines, now with the values behind:

Compound | Purity loss; 14 days at 37° C. [%]
CC(C)C[C@H](NC(=O)[C@H](CC(C)C)NC(=O)[C@H](Cc1c[nH]c2ccccc12)NC(=O)[C@H](CCC(N)=O)NC(=O)[C@@H](NC(=O)[C@H](Cc1ccccc1)NC(=O)[C@H](CCC(=O)O)NC(=O)[C@H](CCCNC(=N)N)NC(=O)[C@H](C)NC(=O)[C@H](CCCNC(=N)N)NC(=O)[C@H](CCCNC(=N)N)NC(=O)[C@H](CO)NC(=O)[C@H](CC(=O)O)NC(=O)[C@H](CC(C)C)NC(=O)[C@H](Cc1ccc(O)cc1)NC(=O)[C@H](CCCCN)NC(=O)[C@H](CO)NC(=O)[C@H](CC(C)C)NC(=O)[C@H](CC(=O)O)NC(=O)[C@H](CO)NC(=O)[C@@H](NC(=O)[C@H](Cc1ccccc1)NC(=O)[C@@H](NC(=O)CNC(=O)[C@H](CCC(N)=O)NC(=O)C(C)(C)NC(=O)[C@@H](N)Cc1c[nH]cn1)[C@@H](C)O)[C@@H](C)O)C(C)C)C(=O)N[C@@H](CC(N)=O)C(=O)N[C@@H](CCCCNC(=O)CC[C@H](NC(=O)CC[C@H](NC(=O)COCCOCCNC(=O)COCCOCCNC(=O)CC[C@H](NC(=O)CCCCCCCCCCCCCCCCC(=O)O)C(=O)O)C(=O)O)C(=O)O)C(N)=O [Example 12, N^ε29-[(4S)-4-carboxy-4-[[(4S)-4-carboxy-4-[[2-[2-[2-[[2-[2-[2-[[(4S)-4-carboxy-4-(17-carboxyheptadecanoylamino)butanoyl]amino]ethoxy]ethoxy]acetyl]amino]ethoxy]ethoxy]acetyl]amino]butanoyl]amino]butanoyl]-[Aib2,Leu10,Arg20,Glu21,Leu27,Lys29]-Glucagon amide] (H-H[Aib]QGTFTSDLSKYLDSRRAREFVQWLLNK([γGlu-γGlu-AEEA-AEEA-γGlu-C18 diacid])-NH2) | 8
CC(C)C[C@H](NC(=O)[C@H](Cc1ccc(O)cc1)NC(=O)[C@H](CCCCN)NC(=O)[C@H](CO)NC(=O)[C@H](CC(C)C)NC(=O)[C@H](CC(=O)O)NC(=O)[C@H](CO)NC(=O)[C@@H](NC(=O)[C@H](Cc1ccccc1)NC(=O)[C@@H](NC(=O)CNC(=O)[C@H](CCC(N)=O)NC(=O)C(C)(C)NC(=O)[C@@H](N)Cc1c[nH]cn1)[C@@H](C)O)[C@@H](C)O)C(=O)N[C@@H](CC(=O)O)C(=O)N[C@@H](C)C(=O)N[C@@H](CCCNC(=N)N)C(=O)N[C@@H](CCCNC(=N)N)C(=O)N[C@@H](C)C(=O)N[C@@H](CCCNC(=N)N)C(=O)N[C@@H](CC(=O)O)C(=O)N[C@@H](Cc1ccccc1)C(=O)N[C@H](C(=O)N[C@@H](CCC(N)=O)C(=O)N[C@@H](Cc1c[nH]c2ccccc12)C(=O)N[C@@H](CC(C)C)C(=O)N[C@@H](CC(C)C)C(=O)N[C@@H](CC(N)=O)C(=O)N[C@@H](CCCCNC(=O)CC[C@H](NC(=O)CC[C@H](NC(=O)COCCOCCNC(=O)COCCOCCNC(=O)CC[C@H](NC(=O)CCCCCCCCCCCCCCCCC(=O)O)C(=O)O)C(=O)O)C(=O)O)C(N)=O)C(C)C [Example 65] (H-H[Aib]QGTFTSDLSKYLDARRARDFVQWLLNK([γGlu-γGlu-AEEA-AEEA-γGlu-C18 diacid])-NH2; N-terminus assumed) | 3
CC(C)C[C@H](NC(=O)[C@H](Cc1ccc(O)cc1)NC(=O)[C@H](CCCCN)NC(=O)[C@H](CO)NC(=O)[C@H](CC(C)C)NC(=O)[C@H](CC(=O)O)NC(=O)[C@H](CO)NC(=O)[C@@H](NC(=O)[C@H](Cc1ccccc1)NC(=O)[C@@H](NC(=O)CNC(=O)[C@H](CCC(N)=O)NC(=O)C(C)(C)NC(=O)[C@@H](N)Cc1c[nH]cn1)[C@@H](C)O)[C@@H](C)O)C(=O)N[C@@H](CC(=O)O)C(=O)N[C@@H](C)C(=O)N[C@@H](CCCNC(=N)N)C(=O)N[C@@H](CCCNC(=N)N)C(=O)N[C@@H](C)C(=O)N[C@@H](CCCNC(=N)N)C(=O)N[C@@H](CC(=O)O)C(=O)N[C@@H](Cc1ccccc1)C(=O)N[C@H](C(=O)N[C@@H](CCC(N)=O)C(=O)N[C@@H](Cc1c[nH]c2ccccc12)C(=O)N[C@@H](CC(C)C)C(=O)N[C@@H](CC(C)C)C(=O)N[C@@H](CO)C(=O)N[C@@H](CCCCNC(=O)CC[C@H](NC(=O)CC[C@H](NC(=O)COCCOCCNC(=O)COCCOCCNC(=O)CC[C@H](NC(=O)CCCCCCCCCCCCCCCCC(=O)O)C(=O)O)C(=O)O)C(=O)O)C(N)=O)C(C)C [Example 66, N^ε29-[(4S)-4-carboxy-4-[[(4S)-4-carboxy-4-[[2-[2-[2-[[2-[2-[2-[[(4S)-4-carboxy-4-(17-carboxyheptadecanoylamino)butanoyl]amino]ethoxy]ethoxy]acetyl]amino]ethoxy]ethoxy]acetyl]amino]butanoyl]amino]butanoyl]-[Aib2,Leu10,Ala16,Arg20,Leu27,Ser28,Lys29]-Glucagon amide] (H-H[Aib]QGTFTSDLSKYLDARRARDFVQWLLSK([γGlu-γGlu-AEEA-AEEA-γGlu-C18 diacid])-NH2; N-terminus assumed) | 2
